Measured values from patent publication US20220017516A1, “LOX INHIBITORS” (THE INSTITUTE OF CANCER RESEARCH: ROYAL CANCER HOSPITAL, priority 2018, published 2022).
Positions count from the first letter of the chain named. Where two headings read alike, the source gives them in different places.

How the values were obtained:
LOXL2 = biological target: T1, LOXL2 (Homo sapiens, UniProt Q9Y4K0); test: LOX isoform activity assay (ROS Glo), LOXL2; assay type: biochemical
T1 construct: purchased R&D Systems/Bio-techne
T1 sequence (Q9Y4K0 26-774): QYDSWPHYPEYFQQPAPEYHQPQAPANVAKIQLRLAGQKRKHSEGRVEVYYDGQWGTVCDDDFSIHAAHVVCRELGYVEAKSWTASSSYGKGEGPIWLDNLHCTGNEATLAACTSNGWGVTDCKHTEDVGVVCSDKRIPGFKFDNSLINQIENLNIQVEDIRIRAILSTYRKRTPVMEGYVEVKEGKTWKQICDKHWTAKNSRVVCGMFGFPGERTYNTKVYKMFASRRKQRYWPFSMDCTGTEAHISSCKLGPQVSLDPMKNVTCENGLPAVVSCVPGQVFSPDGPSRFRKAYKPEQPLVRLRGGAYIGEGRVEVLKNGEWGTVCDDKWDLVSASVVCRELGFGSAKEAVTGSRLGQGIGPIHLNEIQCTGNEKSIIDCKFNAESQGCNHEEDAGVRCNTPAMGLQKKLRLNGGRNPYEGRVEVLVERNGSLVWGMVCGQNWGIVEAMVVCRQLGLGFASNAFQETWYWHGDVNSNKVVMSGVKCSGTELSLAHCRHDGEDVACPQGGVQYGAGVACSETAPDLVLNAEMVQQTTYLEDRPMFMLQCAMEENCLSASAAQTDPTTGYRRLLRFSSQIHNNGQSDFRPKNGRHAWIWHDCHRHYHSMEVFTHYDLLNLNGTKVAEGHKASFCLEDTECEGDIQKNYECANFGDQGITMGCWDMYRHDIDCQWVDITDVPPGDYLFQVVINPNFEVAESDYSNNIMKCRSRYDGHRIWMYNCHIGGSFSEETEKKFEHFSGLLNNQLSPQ
Description: (§1) LOX was extracted from pig skin by previously described methods (Shackleton and Hulmes, 1990). LOXL2 and LOXL3 were obtained from R&D Systems/Bio-techne. The Promega ROS Glo assay kit (G8821) was used to assess enzyme activity. Overall, test compound was added to either 384 well assay plates (Greiner) using a Labcyte Echo™ Acoustic Handler or to 96 well plates for a final assay concentration of 100, 30, 10, 3, 1, 0.3, 0.1, 0.03, 0.01 and 0.003 μM final assay concentration. Enzymes were diluted according to specific pre-determined activity in assay buffer (100 mM CHES, pH 9, 0.05% (w/v) pluronic F-127, 0.5% (w/v) BSA, 1 mM MgCl2, 1 M urea, 100 mM NaCl) and added to the plate. For LOXL2, the mixture was incubated for 20 min, 1 h or 20 h; for LOX and LOXL3, incubation time was 1 h. Cadaverine and H2O2 substrate were then added to each well (final assay concentration 19.56 mM and 25 μM respectively) and the plates were incubated for 1.5 h (for LOX) or 1 h (for LOXL2 and LOXL3) at room temperature. Finally, luciferin detection reagent was added and plates were incubated for 20 min at room temperature, protected from light. Luminescence was measured using a BMG LABTECH PHERAstar FS reader and resulting IC50 values were calculated using GraphPad Prism software.
In another setting, LOXL2 enzyme was diluted according to specific pre-determined activity in assay buffer (100 mM CHES, pH 9, 0.05% (w/v) pluronic F-127, 0.5% (w/v) BSA, 1 mM MgCl2, 1 M urea, 100 mM NaCl). Overall, 0.5 μl test compound was added to 40 μl assay buffer+LOXL2 at 100, 30, 10, 3, 1, 0.3, 0.1, 0.03, 0.01 and 0.003 μM (final concentration) in a 96-well white polystyrene, flat bottom plates (Fisher) and incubated for the indicated time at room temperature. 10 μl of assay buffer containing 97.8 mM cadaverine and 125 μM H2O2 substrate (final assay concentration 19.56 mM and 25 μM respectively) were added to each well and plates were incubated for 1 h at room temperature. Finally, 50 μl per well luciferin detection reagent was added and plates were incubated for 20 min at room temperature, protected from light. Luminescence was measured with an integration time of 500 ms per well using a SpectaMax M5 plate reader and resulting IC50 values were calculated using GraphPad Prism software.

LOX [1] = biological target: T2, LOX (Mus musculus, UniProt P28301); test: LOX activity in cysts assay (roGFP2 LOX biosensor in MDCK cysts); assay type: cell-based; settings: LOX; for inhibition at 2.5 µM: read-out: Cyst LOX (% inhibition) @ 2.5 uM
T2 construct: Full length LOX cDNA was then PCR cloned into pEGFP-N1 (Clonetech), or biosensor vector proGFP2—N1; expressed in transfected cells; host or cells: MDCK cells grown as cysts on Matrigel
T2 sequence (P28301 163-411): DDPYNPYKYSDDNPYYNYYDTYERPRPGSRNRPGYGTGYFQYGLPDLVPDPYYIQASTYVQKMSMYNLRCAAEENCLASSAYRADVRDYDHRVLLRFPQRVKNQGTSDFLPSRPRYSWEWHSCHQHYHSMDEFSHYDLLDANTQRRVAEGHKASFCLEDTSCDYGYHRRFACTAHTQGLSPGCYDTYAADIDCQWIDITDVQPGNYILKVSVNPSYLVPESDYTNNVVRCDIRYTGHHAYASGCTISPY
Description: All cell lines used in this study were purchased from American Type Culture Collection (ATCC). Mycoplasma contamination was routinely monitored by PCR. Cells used were not found to be Mycoplasma positive. MDCK cell lines were cultured in Dulbecco's Modified Eagle Medium (DMEM) supplemented with 10% fetal bovine serum (FBS) and 1% Penicillin Streptomycin solution (Pen Strep). For GFP constructs transfection in MDCK cells, lipofectamine 3000 was used according to manufactures protocols. Cells were either selected with G418 (Life Technologies) at 5 mg/ml. All cell culture reagents were purchased from Life Technologies.
To produce MDCK cysts, cells were cultured on Matrigel (Corning) with 2% Matrigel supplemented in DMEM with 10% FBS. Cysts were allowed to form for 10 days before subsequent studies.
Mouse LOX cDNA was purchased from OriGene. Full length LOX cDNA was then PCR cloned into pEGFP-N1 (Clonetech), or biosensor vector proGFP2—N1 (Hanson, 2004) using the following primers, […] (forward primer) and […] (reverse primer). For the insertion into pEGFP-N1 or proGFP2—N1, Nhel and Xhol restriction sites were added to forward and reverse primers accordingly. Mutant LOX constructs were made using QuickChange II site-directed mutagenesis kit (Agilent Technologies) following manufacture's protocol using LOX-GFP as template. To generate, roGFP2 versions of LOX mutant constructs, LOX mutant cDNA was transferred from pEGFP-N1 to proGFP2—N1 using Nhel and Xhol.
All photomicrographs were taken with a Leica TCS SP8 X confocal system. For LOX biosensor imaging, live MDCK cysts were used. The oxidised biosensor was excited using a 405 nm laser, while the reduced biosensor was excited with a 488 nm laser. Emission of the biosensor was recorded at 500 nm-530 nm range using sequential scans. Ratio images were generated following a published protocol {Kardash, 2011 #376}. Note, while the published protocol generates YFP/CFP ratio images, we used it to generate Oxidised/Reduced (roGFP2 ratio) ratio images. The roGFP2 ratio at the basal surface of MDCK cysts was used to indicate LOX inhibition. LOX inhibitors were added 30 min prior to imaging.
For clarity, readout for DMSO treated cysts represents 0% inhibition (no inhibition) and readout for BAPN at 1 mM is used as 100% inhibition (full inhibition).

LOX [2] = biological target: T3, LOX (Sus scrofa, UniProt P45845); test: LOX isoform activity assay (ROS Glo), LOX; assay type: biochemical, pig; settings: 1 h incubation with enzyme
T3 construct: LOX was extracted from pig skin by previously described methods; from tissue; host or cells: pig skin
T3 sequence (P45845 1-249): T2 sequence (P28301 163-411) with D20X, T21X, Y22X, N31Y, S80T, N142S, A188N, Q202K, T224S, D231E
Description: as §1

[3] = biological target: T4, monoamine oxidase A (MAO-A) (Homo sapiens, UniProt P21397); test: Amine oxidase activity assay (MAO-Glo), MAO-A; assay type: biochemical
T4 construct: purchased Promega V1452
T4 sequence (P21397 1-527): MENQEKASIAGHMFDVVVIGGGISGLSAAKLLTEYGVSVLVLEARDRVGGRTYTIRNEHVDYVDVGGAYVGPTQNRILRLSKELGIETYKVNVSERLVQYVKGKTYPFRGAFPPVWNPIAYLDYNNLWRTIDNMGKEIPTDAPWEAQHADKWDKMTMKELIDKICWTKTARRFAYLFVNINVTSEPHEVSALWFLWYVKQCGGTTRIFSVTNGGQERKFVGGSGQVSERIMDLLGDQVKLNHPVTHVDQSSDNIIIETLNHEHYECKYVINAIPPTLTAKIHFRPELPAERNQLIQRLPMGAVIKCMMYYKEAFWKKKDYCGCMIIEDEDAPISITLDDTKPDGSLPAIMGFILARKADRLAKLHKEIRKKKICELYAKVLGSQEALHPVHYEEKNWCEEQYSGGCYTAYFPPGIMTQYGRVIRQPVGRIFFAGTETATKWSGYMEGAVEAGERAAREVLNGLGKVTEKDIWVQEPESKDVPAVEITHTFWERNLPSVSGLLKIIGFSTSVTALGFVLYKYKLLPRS
Description: (§2) The Promega MAO-Glo assay kit (V1402) was used to assess monoamine oxidase A (MAO-A) and monoamine oxidase B (MAO-B) activity. MAO substrate was prepared at 80 μM with the specific MAO-A/B reaction buffer. Overall, 0.5 μl test compound was added to 25 μl MAO substrate at 100, 30, 10, 3, 1, 0.3, 0.1, 0.03, 0.01 and 0.003 μM (final concentration) in a 96-well white, flat bottom plate. Overall, 25 μl of 1:520 dilution of MAO-A enzyme (Promega, V1452) or 25 μl of 1:52 dilution of MAO-B enzyme (Sigma, M7441) in specific MAO-A/B reaction buffer was added to each well (enzyme prepared at 2×final concentration) and plates were incubated for 1 h at room temperature. Finally, 50 μl per well luciferin detection reagent was added and plates were incubated for 20 min at room temperature, protected from light. Luminescence was measured with an integration time of 500 ms per well using a SpectaMax M5 plate reader and resulting IC50 values were calculated using GraphPad Prism software.
(§3) In another setting, the DAO and MAO assays were performed in 384-well plates (Greiner) and test compound was added using a Labcyte Echo™ Acoustic Handler for the same final concentrations as in the 96-well setting. Luminescence was measured with BMG LABTECH PHERAstar FS plate reader.

[4] = biological target: T5, monoamine oxidase B (MAO-B) (Homo sapiens, UniProt P27338); test: Amine oxidase activity assay (MAO-Glo), MAO-B; assay type: biochemical
T5 construct: purchased Sigma M7441
T5 sequence (P27338 1-520): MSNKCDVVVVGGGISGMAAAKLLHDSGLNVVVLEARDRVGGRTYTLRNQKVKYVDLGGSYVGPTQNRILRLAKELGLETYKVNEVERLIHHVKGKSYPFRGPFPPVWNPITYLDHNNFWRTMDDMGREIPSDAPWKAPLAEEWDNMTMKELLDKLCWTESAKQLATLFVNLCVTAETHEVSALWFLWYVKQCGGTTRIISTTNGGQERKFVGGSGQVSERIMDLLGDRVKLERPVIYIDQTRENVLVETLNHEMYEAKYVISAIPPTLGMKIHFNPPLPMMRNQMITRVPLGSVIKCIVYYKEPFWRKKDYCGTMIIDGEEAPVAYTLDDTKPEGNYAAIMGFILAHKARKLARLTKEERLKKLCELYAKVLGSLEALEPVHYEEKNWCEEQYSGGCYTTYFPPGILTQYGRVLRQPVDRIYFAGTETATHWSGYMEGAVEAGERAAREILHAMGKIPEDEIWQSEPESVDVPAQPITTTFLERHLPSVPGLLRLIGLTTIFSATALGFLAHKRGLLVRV
Description: as §2, §3

[5] = 20 hr incubation with enzyme; read-out: LOXL2 IC50 c) 20 hr

Compound `CCOc1ccc(N2C[C@@H]3C[C@H]2CN3C(=O)C(F)S(=O)(=O)CCN)cc1` (mixture of isomers) [Example 16, 2-((2-aminoethyl)-sulfonyl)-1-((1S,4S)-5-(4-ethoxyphenyl)-2,5-diazabicyclo-[2.2.1]heptan-2-yl)-2-fluoroethan-1-one] has an IC50 (LOXL2; [5]) of 140 nM and an inhibition at 2.5 µM (LOX [1]; 2.5 uM (stated in cell), DMSO = 0%, BAPN 1 mM = 100% inhibition) of 73%.

For `CCOc1ccc(N2C[C@H]3CN(C(=O)C(F)S(=O)(=O)CCN)C[C@@H]2C(C)(C)C3)cc1` (stereo partly drawn) [Example 15, 2-((2-aminoethyl)sulfonyl)-1-((1 S,5S)-6-(4-ethoxyphenyl)-9,9-dimethyl-3,6-diazabicyclo[3.2.2]nonan-3-yl)-2-fluoroethan-1-one], the IC50 (LOX [2]) was 2200 nM, the IC50 (LOXL2; [5]) was 120 nM and the inhibition at 2.5 µM (LOX [1]) was 78%.

For `CCOc1ccc(N2C[C@H]3CN(C(=O)c4cccc(S(=O)(=O)CCN)c4)C[C@@H]2C(C)(C)C3)cc1` [Example 32, (3-((2-aminoethyl)sulfonyl)phenyl)((1S,5S)-6-(4-ethoxyphenyl)-9,9-dimethyl-3,6-diazabicyclo[3.2.2]nonan-3-yl)methanone], the IC50 [3] was > 100000 nM, the IC50 (LOX [2]) was 23000 nM and the IC50 (LOXL2; [5]) was 3000 nM. The IC50 [4] was > 100000 nM.

`CCOc1ccc(N2C[C@H]3CN(C(=O)C(CC(C)C)S(=O)(=O)CCN)C[C@@H]2C(C)(C)C3)cc1` (stereo partly drawn) [Example 40, 2-((2-aminoethyl)sulfonyl)-1-((1S,5S)-6-(4-ethoxyphenyl)-9,9-dimethyl-3,6-diazabicyclo[3.2.2]nonan-3-yl)-4-methylpentan-1-one] was tested, and the IC50 (LOXL2; 1 hr incubation with enzyme; read-out: LOXL2 IC50 b) 1 hr) was 1100 nM and the inhibition at 10 µM (LOX [1]; 10 uM, DMSO = 0%, BAPN 1 mM = 100% inhibition, inhibitor added 30 min prior to imaging, read-out: Cyst LOX @ 10 uM (% inhibition)) was 79%.
